Results: US20260007681A1, “INDOLE DERIVATIVES AS ESTROGEN RECEPTOR DEGRADERS” (REGENTS OF THE UNIVERSITY OF MICHIGAN, priority 2022, published 2026)
Like-named read-outs stand apart in the source and are kept apart here.

Legend:
ER in MCF-7 cells = ER in MCF-7 cells (Homo sapiens (Human), UniProt P03372); assay: In-cell western (ICW) ER degradation assay in MCF-7 cells (Compounds A1-A70); format: cell-based; details: for DC50: ER degradation, 0.02 to 300 nM, read-out: MCF7 ICW DC50
ERα_LBD(GST) = ERα_LBD(GST) (Homo sapiens (Human), UniProt P03372); assay: IC50 measurements for binding to ERα_LBD (GST), LanthaScreen TR-FRET ERα competitive binding assay; details: 4 nM ERα_LBD(GST), 3 nM Fluormone ES2 Green tracer, 60 min; read-out: ERα HTRF IC50
Protocol: • 1. ERα_LBD(GST) protein: 4 nM • 2. Tb Anti-GST: 2 nM • 3. Fluormone ES2 Green tracer: 3 nM • 4. Incubation time: 60 min • 5. DMSO: 1% • 6. Assay buffer: Adding 1M DTT to Nuclear receptor Buffer K for final 5 mM DTT. • 7. ZPE: 1% DMSO • 8. HPE: 1 μM ARV_471 • 9. LanthaScreen® TR-FRET ERα Competitive Binding Assay (ThermoFisher, #A15887)
• 1) Cherry pick 2 μL 10 mM compound stock to column 1 of a 384 intermediate plate • 2) Add 18 μL DMSO to column 1 to dilute compound to 1 mM. • 3) Transfer 10 μL 1 mM compound to column 1 of a LDV plate. • 4) Add 6 μl DMSO to column 2-10 of the LDV plate. • 5) Compounds undergo 3-fold serial dilution (3 μL+6 μL) in DMSO. • 6) Transfer 120 nL compound solution to assay plate. • ZPE: 120 nL 100% DMSO
Prepare complete nuclear receptor buffer K by adding 1 M DTT to nuclear receptor buffer K for a final concentration of 5 mM DTT. Complete nuclear receptor buffer K must be prepared fresh daily. Prepare 2X protein solution using complete nuclear receptor buffer K containing 8 nM ERα_LBD(GST) and 4 nM Tb Anti-GST. Then, prepare 2× Fluormone ES2 Green tracer (6 nM) using complete nuclear receptor buffer K. Add 6 μL 2× Fluormone ES2 green tracer into a compound plate (PerkinElmer 6008289) by dragonfly with one-tips-addition. Subsequently, add 6 μL 2× protein solution into the plate. Briefly and gently mix the 384-well plate on a plate shaker and incubate at room temperature protected from light for 60 min. The plate is sealed with a cover to minimize evaporation. Read the plate at wavelengths of 520 nm and 495 nm. Calculate the TR-FRET ratio by dividing the emission signal at 520 nm by the emission signal at 495 nm. Generate a binding curve by plotting the emission ratio vs. the log [ligand]. To determine the IC50 value, fit the data using XL-fit for a sigmoidal dose-response.

CRBN/DDB1 = CRBN/DDB1 (Homo sapiens (Human), UniProt Q96SW2); format: binding; details: His tagged CRBN+DDB-DLS7+CXU4, Cy5-labeled Thalidomide probe, one hour incubation; read-out: CRBN HTRF IC50
Protocol: The binding potency was determined using H-TRF assay technology (Perkin Elmer). Compounds were serially diluted in DMSO and 0.2 μL volume was transferred to white 384-well plate.

ER in T47D cells = ER in T47D cells (Homo sapiens (Human), UniProt P03372); assay: In-cell western (ICW) ER degradation assay in T47D cells (Compounds A1-A70); format: cell-based; details: for DC50: ER degradation, 0.02 to 300 nM; for Dmax: T47D, read-out: T47D ICW Dmax (%)
[1] = maximal ER degradation, T47D cells, 16 hrs treatment
[2] = MCF7, maximal ER degradation, MCF-7 cells, 16 hrs treatment, read-out: MCF7 ICW Dmax (%)

Chain of ERα_LBD(GST) (P03372 311-547): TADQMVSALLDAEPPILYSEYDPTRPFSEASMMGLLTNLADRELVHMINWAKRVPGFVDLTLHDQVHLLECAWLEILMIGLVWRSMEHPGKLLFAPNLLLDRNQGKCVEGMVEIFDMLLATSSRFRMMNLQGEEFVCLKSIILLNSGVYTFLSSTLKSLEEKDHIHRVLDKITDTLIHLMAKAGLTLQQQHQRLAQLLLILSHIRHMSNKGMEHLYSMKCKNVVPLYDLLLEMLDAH
Chain of CRBN/DDB1 (Q96SW2 whole entry): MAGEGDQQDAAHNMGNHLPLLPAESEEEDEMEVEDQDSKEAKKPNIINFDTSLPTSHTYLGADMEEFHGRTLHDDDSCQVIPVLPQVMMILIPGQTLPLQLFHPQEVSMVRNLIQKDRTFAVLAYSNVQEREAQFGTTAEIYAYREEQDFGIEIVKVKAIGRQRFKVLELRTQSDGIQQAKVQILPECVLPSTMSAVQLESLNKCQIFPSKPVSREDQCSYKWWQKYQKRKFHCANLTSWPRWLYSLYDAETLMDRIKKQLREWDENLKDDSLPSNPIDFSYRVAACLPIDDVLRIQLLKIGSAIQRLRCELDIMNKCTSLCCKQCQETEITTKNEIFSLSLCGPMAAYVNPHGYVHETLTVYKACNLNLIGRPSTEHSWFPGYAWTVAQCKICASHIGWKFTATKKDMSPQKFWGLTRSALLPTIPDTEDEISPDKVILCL
Chain of CRBN/DDB1 (Q16531 whole entry partner): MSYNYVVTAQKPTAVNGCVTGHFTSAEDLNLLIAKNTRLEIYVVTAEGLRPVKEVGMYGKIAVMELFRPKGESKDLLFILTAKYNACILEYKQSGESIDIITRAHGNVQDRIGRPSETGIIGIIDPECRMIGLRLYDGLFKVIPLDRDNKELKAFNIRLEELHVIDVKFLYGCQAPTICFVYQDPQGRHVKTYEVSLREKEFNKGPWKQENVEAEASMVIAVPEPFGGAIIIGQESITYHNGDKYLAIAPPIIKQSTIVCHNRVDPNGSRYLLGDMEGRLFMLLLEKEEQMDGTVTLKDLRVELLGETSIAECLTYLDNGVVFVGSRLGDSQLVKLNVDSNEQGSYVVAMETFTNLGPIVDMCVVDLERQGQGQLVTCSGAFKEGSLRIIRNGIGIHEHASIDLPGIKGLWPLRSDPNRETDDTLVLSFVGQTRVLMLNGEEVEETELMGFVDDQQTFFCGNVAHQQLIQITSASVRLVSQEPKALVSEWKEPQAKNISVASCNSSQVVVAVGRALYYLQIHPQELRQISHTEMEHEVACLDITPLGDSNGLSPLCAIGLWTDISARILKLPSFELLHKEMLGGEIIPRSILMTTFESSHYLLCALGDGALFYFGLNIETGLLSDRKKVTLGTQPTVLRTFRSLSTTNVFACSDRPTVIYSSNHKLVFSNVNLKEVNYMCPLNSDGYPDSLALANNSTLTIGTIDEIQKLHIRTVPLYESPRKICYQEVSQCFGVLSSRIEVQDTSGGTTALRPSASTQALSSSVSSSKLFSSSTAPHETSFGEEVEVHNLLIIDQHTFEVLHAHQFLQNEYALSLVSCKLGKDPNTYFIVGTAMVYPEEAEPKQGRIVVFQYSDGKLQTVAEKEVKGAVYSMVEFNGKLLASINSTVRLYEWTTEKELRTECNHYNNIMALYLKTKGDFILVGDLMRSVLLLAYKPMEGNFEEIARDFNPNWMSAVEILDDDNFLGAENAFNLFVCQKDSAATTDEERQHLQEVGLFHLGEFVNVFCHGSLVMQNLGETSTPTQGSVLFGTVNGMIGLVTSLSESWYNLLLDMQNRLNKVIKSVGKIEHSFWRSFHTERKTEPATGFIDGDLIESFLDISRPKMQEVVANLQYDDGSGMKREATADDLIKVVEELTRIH
Chain of ER in T47D cells (P03372 whole entry): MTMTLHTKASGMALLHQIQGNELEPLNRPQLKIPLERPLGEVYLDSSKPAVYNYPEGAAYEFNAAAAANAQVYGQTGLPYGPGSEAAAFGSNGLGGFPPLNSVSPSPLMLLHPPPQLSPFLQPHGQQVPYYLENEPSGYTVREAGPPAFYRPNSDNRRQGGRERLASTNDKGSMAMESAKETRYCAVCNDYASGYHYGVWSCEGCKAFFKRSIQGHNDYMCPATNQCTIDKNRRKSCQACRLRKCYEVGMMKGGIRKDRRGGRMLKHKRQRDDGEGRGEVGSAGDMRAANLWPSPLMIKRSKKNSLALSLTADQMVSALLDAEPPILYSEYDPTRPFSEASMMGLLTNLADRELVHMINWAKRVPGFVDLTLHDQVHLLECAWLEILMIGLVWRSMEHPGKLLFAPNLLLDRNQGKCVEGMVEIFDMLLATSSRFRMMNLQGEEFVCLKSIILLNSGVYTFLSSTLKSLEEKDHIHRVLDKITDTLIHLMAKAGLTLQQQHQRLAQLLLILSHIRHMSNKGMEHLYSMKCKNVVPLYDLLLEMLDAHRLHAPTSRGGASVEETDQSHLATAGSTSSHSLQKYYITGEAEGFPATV
Chain of ER in MCF-7 cells (P03372 whole entry): as above

| Structure (SMILES) | DC50 (ER in MCF-7 cells; MCF-7 cells, 16 hrs treatment) [nM] | IC50 (ERα_LBD(GST)) [nM] | IC50 (CRBN/DDB1) [nM] | DC50 (ER in T47D cells; T47D cells, 16 hrs treatment) [nM] | Dmax (ER in T47D cells; [1]) [%] | Dmax (ER in MCF-7 cells; [2]) [%] | Dmax (ER in T47D cells) [%] | Dmax (ER in MCF-7 cells; MCF7, read-out: MCF7 ICW Dmax (%)) [%] |
| --- | --- | --- | --- | --- | --- | --- | --- | --- |
| COc1cc(N2CCC(CN3CCN(c4ccc(C(=O)N[C@H]5CCC(=O)NC5=O)nc4)CC3)CC2)ccc1[C@@H]1c2[nH]c3ccccc3c2C[C@@H](C)N1CC(F)F [Compound A55, 5-(4-((1-(4-((1R,3R)-2-(2,2-difluoroethyl)-3-methyl-2,3,4,9-tetrahydro-1H-pyrido[3,4-b]indol-1-yl)-3-methoxyphenyl)piperidin-4-yl)methyl)piperazin-1-yl)-N—((S)-2,6-dioxopiperidin-3-yl)picolinamide] | < 1 | < 10 | > 5000 | – | – | – | – | – |
| C[C@@H]1Cc2c([nH]c3ccccc23)[C@@H](c2cnc(N3CCC4(CC3)C[C@@H](CN3CCN5c6ccc(C(=O)N[C@H]7CCC(=O)NC7=O)nc6OC[C@H]5C3)CO4)nc2)N1CC(F)F [Compound A63, (4aR)-3-((8-(5-((1R,3R)-2-(2,2-difluoroethyl)-3-methyl-2,3,4,9-tetrahydro-1H-pyrido[3,4-b]indol-1-yl)pyrimidin-2-yl)-1-oxa-8-azaspiro[4.5]decan-3-yl)methyl)-N—((S)-2,6-dioxopiperidin-3-yl)-1,2,3,4,4a,5-hexahydropyrazino[1,2-d]pyrido[2,3-b][1,4]oxazine-8-carboxamide] | 1 to 10 | ≥ 10 | 500 to 5000 | 1 to 10 | 50 to 75 | 50 to 75 | – | – |
| COc1cc(N2CCC(CN3CCN4c5ccc6c(c5OC[C@H]4C3)CN([C@@H]3CCC(=O)NC3=O)C6=O)CC2)ccc1[C@@H]1c2[nH]c3ccccc3c2C[C@@H](C)N1CC(F)F [Compound A37, (R)-3-((R)-7-((1-(4-((1R,3R)-2-(2,2-difluoroethyl)-3-methyl-2,3,4,9-tetrahydro-1H-pyrido[3,4-b]indol-1-yl)-3-methoxyphenyl)piperidin-4-yl)methyl)-1-oxo-1,3,5,5a,6,7,8,9-octahydro-2H-pyrazino[1′,2′:4,5][1,4]oxazino[2,3-e]isoindol-2-yl)piperidine-2,6-dione] | < 1 | < 10 | > 5000 | < 1 | > 75 | 50 to 75 | – | – |
| COc1cc(N2CCC(CN3CCN4c5ccc6c(c5OC[C@H]4C3)CN([C@H]3CCC(=O)NC3=O)C6=O)CC2)ccc1[C@@H]1c2[nH]c3ccccc3c2C[C@@H](C)N1CC(C)(C)F [Compound A49, (S)-3-((R)-7-((1-(4-((1R,3R)-2-(2-fluoro-2-methylpropyl)-3-methyl-2,3,4,9-tetrahydro-1H-pyrido[3,4-b]indol-1-yl)-3-methoxyphenyl)piperidin-4-yl)methyl)-1-oxo-1,3,5,5a,6,7,8,9-octahydro-2H-pyrazino[1′,2′:4,5][1,4]oxazino[2,3-e]isoindol-2-yl)piperidine-2,6-dione] | < 1 | ≥ 10 | – | < 1 | – | – | 50 to 75 | > 75 |
| COc1cc(N2CCC(CN3CCN4c5ccc6c(c5OC[C@H]4C3)CN([C@H]3CCC(=O)NC3=O)C6=O)CC2)ccc1[C@@H]1c2[nH]c3ccccc3c2C[C@@H](C)N1CC(F)F [Compound A19, (S)-3-((R)-7-((1-(4-((1R,3R)-2-(2,2-difluoroethyl)-3-methyl-2,3,4,9-tetrahydro-1H-pyrido[3,4-b]indol-1-yl)-3-methoxyphenyl)piperidin-4-yl)methyl)-1-oxo-1,3,5,5a,6,7,8,9-octahydro-2H-pyrazino[1′,2′:4,5][1,4]oxazino[2,3-c]isoindol-2-yl)piperidine-2,6-dione] | 1 to 10 | < 10 | 50 to 500 | – | – | 50 to 75 | – | – |
